A short description of series [1]: equivalent diffusion distance through oil-membrane compared to water (calculation). It is filed as physicochemical. From the text: For this reason, the present inventors chose to use 11 μm thick polycarbonate track-etch membranes instead of thicker hydrophobic membranes such as conventional porous Teflon films (z=10s to 100s of μm). The oil wicks into and remains in the track-etch membrane pores because of its lower interfacial surface tension with the polycarbonate than the water has with polycarbonate. […] The diffusion coefficient of an analyte is dependent on the viscosity of the fluid it is diffusing through. Therefore, an important design element for the oil is to have a low viscosity (diffusion coefficient is inversely proportional to the viscosity of the oil [Walter, A.; Gutknecht, J. Permeability of Small Nonelectrolytes through Lipid Bilayer Membranes. J. Membr. Biol. 1986, 90 (3), 207-217. https://doi.org/10.1007/BF01870127]. Consider an informative example related to the materials used here. The optimal track-etch membranes for this work (see Table 1-below) have an 11 μm membrane thickness and 15.7% porosity, which is equivalent to the analyte having to diffuse through a uniform 70 μm of oil (11 μm/0.157). Now consider castor oil, with a viscosity about 730 times greater than that of water (see Table 2-below). An 11 μm thick castor oil membrane would then be equivalent to a 51,170 μm thick water diffusion distance (11 μum/0.157*730). Alternatively, using a low viscosity oil, such as 1-decanol, the 11 μm thick oil-membrane would have an equivalent thickness of only 945 μm diffusion distance through water (see Table 2).

The conditions of series [2]: cited from earlier work; for LogK (octanol over water): Table 3, ratio of concentration of the oil in octanol and water at equilibrium.
For series [3] the following is noted: cited from earlier work; for Viscosity at 25° C.: Table 3.
For series [4] the following is noted: cited from earlier work.
The conditions of series [5]: cited from earlier work. The source holds these as a separate data set.

≈ marks a conversion by molar mass, not a printed value. Some results are limits rather than exact numbers.

The term Log P denotes a log measure of how a compound divides between an organic and an aqueous phase. As to `CCCCCCCCCCO` [1-Decanol], the Equivalent water thickness is recorded as 26,10 μm in series [1] (pore size 0.1 μm, open area 3.1%, thickness 6 μm); 1,434 μm in series [1] (pore size 0.2 μm, open area 9.4%, thickness 10 μm); 1,070 μm in series [1] (pore size 0.4 μm, open area 12.6%, thickness 10 μm); 945 μm in series [1] (pore size 1.0 μm, open area 15.7%, thickness 11 μm); 861 μm in series [1] (pore size 3.0 μm, open area 14.1%, thickness 9 μm). For the same compound, the “Log P” value in series [2] (Table 2) is given as 5. For the same compound, the “LogK (octanol over water)” value in series [2] is given as 4.57. Also, in series [3] (Table 2), the Viscosity is 12 cP. The “Viscosity at 25° C.” value in series [3] is given as 12 cP. Moreover, the “Vapor pressure at 25° C.” value in series [4] is given as 0.00851 mmHg.
Consider `CCCCCCCCOCCCCCCCC` [Dioctyl ether], for which the “LogK (octanol over water)” value in series [2] is recorded as 6.9. Besides, in series [3], the “Viscosity at 25° C.” value was 0.224 cP. In series [4], the “Vapor pressure at 25° C.” value is on record as 0.005 mmHg.
`CCCCCCCCCCCCS` [Dodecane thiol]: the “LogK (octanol over water)” value in series [2] was 6.1. In addition, the “Vapor pressure at 25° C.” value in series [4] was 0.000015 mmHg. Besides, the Solubility in water in series [5] was less than 0.2 µg/mL.
With `CCCCCCCC/C=C\CCCCCCCC(=O)O` [Oleic acid], the “LogK (octanol over water)” value in series [2] is 7.64. In series [3], the “Viscosity at 25° C.” value is recorded as 27.64 cP. Besides, in series [4], the “Vapor pressure at 25° C.” value was 0.0000005 mmHg. In addition, in series [5], the Solubility in water was 0.01 µg/mL (≈ 0.0354 µM).
Turning to `CCCCCCCCCCCCCC` [Tetradecane], the “LogK (octanol over water)” value in series [2] is given as 8.19. Moreover, in series [3], the “Viscosity at 25° C.” value was 2.13 cP. For the same compound, in series [4], the “Vapor pressure at 25° C.” value was 0.0369 mmHg. The Solubility in water in series [5] is 0.00033 µg/mL (≈ 0.00166 µM).
As for `CC1=C(C/C=C(\C)CCC[C@H](C)CCC[C@H](C)CCCC(C)C)C(=O)c2ccccc2C1=O` [Vitamin K1], in series [2], the “LogK (octanol over water)” value is recorded as 10.9.

The values above are taken from patent US20230358737A1, “CONTINUOUSLY CHEMICALLY ENHANCED APTAMER SENSORS” (University of Cincinnati, priority 2020, published 2023).
